According to patent US6197774A, “Pyrimidine derivative” (Otsuka Pharmaceutical Co., Ltd., priority 1997, dated 2001):

Tests used:
[1] = system: formation of IL-8 in cell strain A 549; test: Activity for inhibiting the formation of IL-8 in vitro (A 549 cells, ELISA); type: cell-based; conditions: Homo sapiens, A549, control 100.0, 24 hours, read-out: Ratio of formed amount of IL-8
Description: [Evaluation test of activity for inhibiting the formation of IL-8 in vitro]
Pyrimidine derivative obtained in Example 1 was used as test comppound.
Cell strain A 549 (ATCC) derived from human alveolar epithelium cells was placed on each one of the wells on a microplate having 24-wells so as to put the cells in an amount of 3×10^5 cells/U (well). The cells were incubated for 24 hours in F-12 Nutrient Mixture culture medium (mfd. by GIBCO) to which 10% of equine serum, 100 U/ml of penicillin (mfd. by Dainippon Pharmaceutical Co., Ltd.) and 100 μg/ml of streptomycin (mfd. by Dainippon Pharmaceutical Co., Ltd.) were added.
Next, the equine serum was removed from the culture medium, and the reference culture medium as control was prepared by adding inducers of TNF-α (mfd. by genzyme), IL-1β (mfd. by genzyme) and IFN-γ (mfd. by genzyme) to the culture medium, so as to induce the formation of IL-8.
On the other hand, the test culture medium, containing the test compound of Example 1 was prepared similarly as in the reference culture medium, except adding the test compound (1×10^-5, 1×10^-6 and 1×10^-7 M) dissolved in dimethyl sulfoxide (DMSO) at the same time of inducers-addition.
The concentration of IL-8 formed in the supernatant of each one of the culture media after 24-hour incubation was measured by IL-8 ELISA Kit Human (mfd. by genzyme). Further, MTT assay was conducted by the similar method as described in Text Example 2 to determine the index of toxicity for cells.

[2] = Toxicity of compound against the cell strain RAW 264.7 (MTT); type: cell-based; conditions: mouse, raw 264.7 cells, 1 × 10^-6 M, read-out: Ratio of optical absorbance
Description: [Toxicity test (Toxicity of compound against the cell strain RAW 264.7)]
Test was conducted in accordance with the method as described in J. Immunol. Methods, Vol. 94, pp. 57-68, (1986). Cell strain RAW 264.7 derived from the macrophage of mouse was incubated similarly as in the method of Test Example 1(1). After that, MTT reagent (5 mg/ml) in 1/10 amount of the culture medium was added to the cells, and incubated for 4 hours. The supernatant of culture medium was taken off, then the cells were collected by using 1% SDS solution and the optical absorbance at 570-630 nm of the SDS solution was measured.

5-lipoxygenase = molecular target: T1, 5-lipoxygenase (Rattus norvegicus, UniProt P12527); test: Activity for inhibiting 5-lipoxygenase in vitro (crude enzyme from rat basophilic leukemia-1 cells, 5-HETE RIA); type: biochemical; conditions: 8 minutes at 25° C.
T1 construct: Thus obtained supernatant was collected and concentrated so as to obtain crude enzyme containing 5-lipoxygenase; host or cells: rat basophilic leukemia-1 cells
T1 sequence (P12527 1-673): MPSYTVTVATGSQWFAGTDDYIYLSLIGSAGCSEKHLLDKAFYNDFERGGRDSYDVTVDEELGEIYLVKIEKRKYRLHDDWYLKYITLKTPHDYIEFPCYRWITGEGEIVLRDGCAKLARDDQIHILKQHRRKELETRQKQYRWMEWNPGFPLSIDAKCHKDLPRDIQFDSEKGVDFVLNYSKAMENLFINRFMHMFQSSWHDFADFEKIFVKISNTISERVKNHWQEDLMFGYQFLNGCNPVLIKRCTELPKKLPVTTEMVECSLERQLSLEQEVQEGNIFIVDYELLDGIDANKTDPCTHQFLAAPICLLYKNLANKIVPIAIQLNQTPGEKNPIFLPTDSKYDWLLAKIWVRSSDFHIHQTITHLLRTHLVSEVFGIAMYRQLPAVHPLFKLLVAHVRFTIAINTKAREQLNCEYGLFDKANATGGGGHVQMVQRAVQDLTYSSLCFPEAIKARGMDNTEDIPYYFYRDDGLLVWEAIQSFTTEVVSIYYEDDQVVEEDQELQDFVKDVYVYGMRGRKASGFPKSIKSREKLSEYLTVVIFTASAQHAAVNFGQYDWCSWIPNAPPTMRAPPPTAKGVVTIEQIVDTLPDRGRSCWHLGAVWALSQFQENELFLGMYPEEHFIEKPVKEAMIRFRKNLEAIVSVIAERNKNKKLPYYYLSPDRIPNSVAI
Description: [Evaluation test of activity for inhibiting 5-lipoxygenase in vitro]
Pyrimidine derivative obtained in Example 1 was used as test compound.
Test was referred to the methods as described in Proc. Natl. Acad. Sci. U.S.A., Vol. 81, pp. 689-693 (1984) and J. Biol. Chem., Vol. 260, pp. 11554--11559 (1985).
(1) Preparation of Crude Enzyme Containing 5-lipoxygenase
RBI-1 cells (rat basophilic leukemia-1, ATCC, 1×10^8 cells) in 5 ml of buffer solution (50 mM Tris/1 mM EDTA, pH 7.4) were lysed with nitrogen cavitation bomb (mfd. by PARR Instrument Company) under 750 psi for 20 min at 4° C. The solution were centrifuged with twice volume of 50 mM Tris/1 mM EDTA (pH 7.4) at 5000 rpm for 10 minutes at 4° C. The supernatant of the solution was taken and further centrifuged at 37,500 rpm for 90 minutes at 4° C. Thus obtained supernatant was collected and concentrated so as to obtain crude enzyme containing 5-lipoxygenase. Its protein concentration was determined with Protein assey kit (mfd. by Pierce).
(2) Evaluation of Activity for Inhibiting 5-lipoxygenase (RIA assay)
12.5 μl of Crude enzyme, 61.5 μl of 50 mM Tris-HCl (mfd. by Sigma Chemical Co.), 12.5 μl of 0.5 mM ATP (mfd. by Sigma Chemical Co.), and 12.5 μl of cofacter solution (50 mM Tris-HCl (pH 7.2, at 25° C.) containing 10 mM glutahion, 14 mM of indomethacin and 500 mM of CaCl2.2H2 O) were preincubated for […] at 25° C. for reference solution as control. On the other hand, the test solution containing the test compound of Example 1 was prepared similarly as in the reference solution, except adding 1 μl of the test compound (1×10^-4, 1×10^-5, and 1×10^-6 M).
25 μl of 0.07 mM Arachidonic acid (mfd. by Sigma Chemical Co.) was added each of the reference solution and test solutin to intiate the reaction, and incubated it for 8 minutes at 25° C. The reaction was terminated by adding 40 μl of citric acid (mfd. by Sigma Chemical Co.). […]
RIA assay was conducted by the 5-HETE [^3 H] […] RIA assay to determine the amount of 5-lipoxygenase by counting radioactivity on the liquid scintillation counter (mfd. by Beckman Co.). […]

Which results are given for COCc1cc(=O)n2ncc(-c3ccc(Sc4ccccc4)cc3)c2[nH]1 [Example 1, 4,7-dihydro-5-methoxymethyl-7-oxo-3-(4-phenylthiophenyl)pyrazolo[1,5-a]pyrimidine]?
activity at 10 µM ([1]; 1 × 10^-5 M): 13.4%; activity at 1 µM ([1]; 1 × 10^-6 M): 52.6%; activity at 0.1 µM ([1]; 1 × 10^-7 M): 64.5%; viability at 1 µM [2]: 109%; inhibition at 100 µM (5-lipoxygenase; 1 × 10^-4 M): 24.3%; inhibition at 10 µM (5-lipoxygenase; 1 × 10^-5 M): 38.8%; inhibition at 1 µM (5-lipoxygenase; 1 × 10^-6 M): 68%
